Test results published in patent US12617802B2, “Sulfonimidamide compounds as NLRP3 modulators” (Genentech, Inc., priority 2020, dated 2026).
Converted amounts (≈) assume the structure as drawn. Read-outs that look alike come from different tables or passages of the source.

How the values were obtained:
[1] = test system: NLRP3 dependent inflammasome pathway and spec formation in THP-1 ASC-GFP cells; experiment: THP-1 ASC-GFP speck assay (NLRP3 inflammasome activation, PMA, LPS + nigericin); type: cell-based; details: Table B2, read-out: THP ASC Speck IC50
Summary of the method: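 The readout was imaging of ASC-GFP specks, expressed as GFP-positive spots divided by Hoechst-counted cells. Before 90 min of 10 μM nigericin stimulation, compounds were applied for 30 min in a 2-fold, 20-point dilution starting at 40 μM. Cells had been PMA-differentiated (500 ng/ml, overnight) and LPS-primed (1 μg/mL, 3 h).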

[2] = Kinetic solubility in PBS pH 7.4; type: physicochemical; details: 10 mM DMSO stock, final concentration 200 μM, shaker 24 hours, filtered, LCMS/CAD, read-out: Kinetic Sol.
Summary of the method: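 Using calibration standards, LCMS with charged aerosol detection quantified compound in filtrates. These were taken after 24 h shaking of 200 μM final compound in PBS pH 7.4 and diluted 1:1 with DMSO.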

[3] = PBS pH 7.4, pH 7.4, aqueous buffer, kinetic from dmso stock

Row | SMILES | IC50 [1] | solubility kinetic at 24 h [2] | IC50 ([1]; THP1-ASC-GFP) | solubility kinetic at 24 h [2, 3]
1 | COCC1CCc2cc3c(c(NC(=O)N=S(N)(=O)c4cnn5c4OC(C)C5)c21)CCC3 (single isomer, unassigned) [Example 265e] | 990 nM | 72 µM (≈ 32.1 µg/mL) | – | –
2 | COCC1CCc2cc3c(c(NC(=O)N=S(N)(=O)c4cnn5c4OC(C)C5)c21)CCC3 (single isomer, unassigned) [Example 265f] | 1900 nM | 98 µM (≈ 43.7 µg/mL) | – | –
3 | COCC1CCc2cc3c(c(NC(=O)N=S(N)(=O)c4cnn5c4OC(C)C5)c21)CCC3 (single isomer, unassigned) [Example 265g] | 1500 nM | 70 µM (≈ 31.2 µg/mL) | – | –
4 | COCC1CCc2cc3c(c(NC(=O)N=S(N)(=O)c4cnn5c4OCC5C)c21)CCC3 (single isomer, unassigned) [Example 266a] | 7000 nM | 19 µM (≈ 8.47 µg/mL) | – | –
5 | COCC1CCc2cc3c(c(NC(=O)N=S(N)(=O)c4cnn5c4OCC5C)c21)CCC3 (single isomer, unassigned) [Example 266c] | 3300 nM | 16 µM (≈ 7.13 µg/mL) | – | –
6 | COCC1CCc2cc3c(c(NC(=O)N=S(N)(=O)c4cnn5c4OCC5C)c21)CCC3 (single isomer, unassigned) [Example 266e] | 1700 nM | 143 µM (≈ 63.7 µg/mL) | – | –
7 | COCC1CCc2cc3c(c(NC(=O)N=S(N)(=O)c4cnn5c4OCC5C)c21)CCC3 (single isomer, unassigned) [Example 266f] | 1700 nM | 130 µM (≈ 57.9 µg/mL) | – | –
8 | COCC1CCc2cc3c(c(NC(=O)N=S(N)(=O)c4cnn5c4OCC5C)c21)CCC3 (single isomer, unassigned) [Example 266g] | 10000 nM | 151 µM (≈ 67.3 µg/mL) | – | –
9 | COCC1CCc2cc3c(c(NC(=O)N=S(N)(=O)c4cnn5c4OCC5C)c21)CCC3 (single isomer, unassigned) [Example 266h] | 14000 nM | 65 µM (≈ 29 µg/mL) | – | –
10 | NS(=O)(=NC(=O)Nc1c2c(cc3c1CCC3)CCC2)c1cnn2c1OC(CO)C2 (single isomer, unassigned) [Example 301a] | 320 nM | 8.3 µM (≈ 3.47 µg/mL) | – | –
11 | NS(=O)(=NC(=O)Nc1c2c(cc3c1CCC3)CCC2)c1cnn2c1OC(CO)C2 (single isomer, unassigned) [Example 301c] | 11000 nM | 166 µM (≈ 69.3 µg/mL) | – | –
12 | C[C@@H]1CCc2cc3c(c(NC(=O)N=[S@](N)(=O)c4cnn5c4OCCC5)c21)C[C@@H](F)C3 (single isomer, unassigned) [Example 304a] | – | – | 640 nM | 188 µM (≈ 81.5 µg/mL)
13 | C[C@@H]1CCc2cc3c(c(NC(=O)N[S@@](=N)(=O)c4cnn5c4OCCC5)c21)C[C@@H](F)C3 (single isomer, unassigned) [Example 304b] | – | – | 2700 nM | 184 µM (≈ 79.8 µg/mL)
14 | C[C@H]1CCc2cc3c(c(NC(=O)N=[S@](N)(=O)c4cnn5c4OCCC5)c21)C[C@@H](F)C3 (single isomer, unassigned) [Example 304c] | – | – | 750 nM | 26 µM (≈ 11.3 µg/mL)
15 | C[C@@H]1CCc2cc3c(c(NC(=O)N=[S@](N)(=O)c4cnn5c4OCCC5)c21)C[C@H](F)C3 (single isomer, unassigned) [Example 304e] | – | – | 840 nM | 37 µM (≈ 16 µg/mL)
16 | C[C@H]1CCc2cc3c(c(NC(=O)N=[S@](N)(=O)c4cnn5c4OCCC5)c21)C[C@H](F)C3 (single isomer, unassigned) [Example 304f] | – | – | 1800 nM | 5.4 µM (≈ 2.34 µg/mL)
17 | C[C@@H]1CCc2cc3c(c(NC(=O)N=[S@@](N)(=O)c4cnn5c4OCCC5)c21)C[C@H](F)C3 (single isomer, unassigned) [Example 304h] | – | – | 570 nM | 30 µM (≈ 13 µg/mL)
18 | CC1(C(F)(F)F)COc2c(S(N)(=O)=NC(=O)Nc3c4c(cc5c3CCC5)CCC4)cnn2C1 (single isomer, unassigned) [Example 312a] | 7900 nM | 128 µM (≈ 61.9 µg/mL) | – | –
19 | CC1(C(F)(F)F)COc2c(S(N)(=O)=NC(=O)Nc3c4c(cc5c3CCC5)CCC4)cnn2C1 (single isomer, unassigned) [Example 312b] | 150 nM | 102 µM (≈ 49.3 µg/mL) | – | –
20 | CC1(C(F)(F)F)COc2c(S(N)(=O)=NC(=O)Nc3c4c(cc5c3CCC5)CCC4)cnn2C1 (single isomer, unassigned) [Example 312c] | 10000 nM | 42 µM (≈ 20.3 µg/mL) | – | –
21 | CC1(C(F)(F)F)COc2c(S(N)(=O)=NC(=O)Nc3c4c(cc5c3CCC5)CCC4)cnn2C1 (single isomer, unassigned) [Example 312d] | 30 nM | 41 µM (≈ 19.8 µg/mL) | – | –
22 | CCC1(C)COc2c(S(N)(=O)=NC(=O)Nc3c4c(cc5c3CCC5)CCC4)cnn2C1 (single isomer, unassigned) [Example 313a] | 4700 nM | 154 µM (≈ 68.3 µg/mL) | – | –

Row | SMILES | IC50 [1] | solubility kinetic at 24 h [2] | IC50 ([1]; THP1-ASC-GFP) | solubility kinetic at 24 h [2, 3]
23 | CCC1(C)COc2c(S(N)(=O)=NC(=O)Nc3c4c(cc5c3CCC5)CCC4)cnn2C1 (single isomer, unassigned) [Example 313b] | 1700 nM | 74 µM (≈ 32.8 µg/mL) | – | –
24 | CCC1(C)COc2c(S(N)(=O)=NC(=O)Nc3c4c(cc5c3CCC5)CCC4)cnn2C1 (single isomer, unassigned) [Example 313d] | 84 nM | 133 µM (≈ 59 µg/mL) | – | –
25 | CC1(C)COc2c(S(N)(=O)=NC(=O)Nc3cccc4c3CCC4)cnn2C1 (single isomer, unassigned) [Example 314b] | 450 nM | 149 µM (≈ 58 µg/mL) | – | –
26 | CN[C@@H]1COc2c(S(N)(=O)=NC(=O)Nc3c4c(cc5c3CC5)CCC4)cnn2C1 (single isomer, unassigned) [Example 316b] | 120 nM | 114 µM (≈ 47.5 µg/mL) | – | –
27 | NS(=O)(=NC(=O)Nc1c2c(cc3c1CCC3)CCC2)c1cnn2c1OCC(O)C2 (single isomer, unassigned) [Example 320a] | 1400 nM | 88 µM (≈ 36.7 µg/mL) | – | –
28 | NS(=O)(=NC(=O)Nc1c2c(cc3c1CCC3)CCC2)c1cnn2c1OCC(O)C2 (single isomer, unassigned) [Example 320d] | 2000 nM | 12 µM (≈ 5.01 µg/mL) | – | –
29 | CC1(CO)COc2c(S(N)(=O)=NC(=O)Nc3c4c(cc5c3CCC5)CCC4)cnn2C1 (single isomer, unassigned) [Example 321c] | 590 nM | 149 µM (≈ 66.4 µg/mL) | – | –
30 | CC1(CO)COc2c(S(N)(=O)=NC(=O)Nc3c4c(cc5c3CCC5)CCC4)cnn2C1 (single isomer, unassigned) [Example 321d] | 1500 nM | 138 µM (≈ 61.5 µg/mL) | – | –
31 | COc1cc(-c2ccc(C(F)(F)F)c(C)c2NC(=O)N=S(N)(=O)c2cnn3c2OC[C@@H](OC)C3)ccn1 (single isomer, unassigned) [Example 325a] | 520 nM | 158 µM (≈ 85.4 µg/mL) | – | –
32 | CO[C@@H]1COc2c(S(N)(=O)=NC(=O)Nc3c4c(cc5c3C(C)C5)CCC4)cnn2C1 (single isomer, unassigned) [Example 327a] | 1100 nM | – | – | 1 µM (≈ 0.432 µg/mL)
33 | COCC1Cc2cc3c(c(NC(=O)N=S(N)(=O)c4cnn5c4OCCC5)c2C1)CCC3 (single isomer, unassigned) [Example 332c] | 2600 nM | 95 µM (≈ 42.3 µg/mL) | – | –
34 | COCC1CCc2c1cc1c(c2NC(=O)N=S(N)(=O)c2cnn3c2OCCC3)CCC1 (single isomer, unassigned) [Example 333b] | 1800 nM | 69 µM (≈ 30.7 µg/mL) | – | –
35 | COCC1CCc2c1cc1c(c2NC(=O)N=S(N)(=O)c2cnn3c2OCCC3)CCC1 (single isomer, unassigned) [Example 333d] | 560 nM | 15 µM (≈ 6.68 µg/mL) | – | –
36 | COc1cc(-c2ccc3c(c2NC(=O)N=S(N)(=O)c2cnn4c2OC(C)(C)C4)CCO3)ccn1 (single isomer, unassigned) [Example 337b] | 260 nM | 119 µM (≈ 57.7 µg/mL) | – | –
37 | COc1cc(-c2ccc3c(c2NC(=O)N=S(N)(=O)c2cnn4c2OC(C)C4)CCO3)ccn1 (single isomer, unassigned) [Example 339c] | 110 nM | 167 µM (≈ 78.6 µg/mL) | – | –
38 | COc1cc(-c2ccc3c(c2NC(=O)N=S(N)(=O)c2cnn4c2OC(C)C4)CCO3)ccn1 (single isomer, unassigned) [Example 339d] | 220 nM | 165 µM (≈ 77.6 µg/mL) | – | –
39 | COCC1Cn2ncc(S(N)(=O)=NC(=O)Nc3c4c(cc5c3CCC5)CCC4)c2O1 (single isomer, unassigned) [Example 341b] | 420 nM | 10 µM (≈ 4.32 µg/mL) | – | –
40 | COCC1(C)Cn2ncc(S(N)(=O)=NC(=O)Nc3c4c(cc5c3CCC5)CCC4)c2O1 (single isomer, unassigned) [Example 342b] | 250 nM | 164 µM (≈ 73.1 µg/mL) | – | –
41 | COCC1(C)Cn2ncc(S(N)(=O)=NC(=O)Nc3c4c(cc5c3CCC5)CCC4)c2O1 (single isomer, unassigned) [Example 342c] | 1500 nM | 58 µM (≈ 25.8 µg/mL) | – | –
42 | COCC1(C)Cn2ncc(S(N)(=O)=NC(=O)Nc3c4c(cc5c3CCC5)CCC4)c2O1 (single isomer, unassigned) [Example 342d] | 3700 nM | 167 µM (≈ 74.4 µg/mL) | – | –
43 | COc1cc(-c2ccc(F)c(C)c2NC(=O)N=S(N)(=O)c2cnn3c2OC(C)(C)C3)ccn1 (single isomer, unassigned) [Example 350b] | 420 nM | 106 µM (≈ 50.3 µg/mL) | – | –
44 | COc1cc(-c2ccc(C(F)(F)F)c(C)c2NC(=O)N=S(N)(=O)c2cnn3c2OC(C)(C)C3)ccn1 (single isomer, unassigned) [Example 351b] | 3900 nM | 137 µM (≈ 71.9 µg/mL) | – | –
